This is an account of results in patent publication US20250044279A1, “CYTOTOXICITY ASSAY FOR DETECTING CELLULAR DAMAGE” (priority 2023, published 2025).

One assay relates to C. albicans (SC5314). The experiment in a line: Infection of TR146-Nluc epithelial cells with C. albicans in the presence of antifungals; damage read out by Nluc and LDH in supernatant. The class given is cell-based. The conditions noted are these: sub-MIC levels, supernatant 24 hours after infection; for protection of TR146-Nluc from C. albicans-induced cell damage, LDH assay: LDH readout, protective effect not reliably detected (FIG. 3D); for protection of TR146-Nluc from C. albicans-induced cell damage, Nluc assay: Nluc readout (FIG. 3D). The procedure: (§1) In order to measure damage from cells seeded in 96-well plates, plates were centrifuged at 250×g for 10 minutes. Where indicated, 100 μl of supernatant was collected and stored at −20° C. for assaying on another day in the same week. For the luciferase assays, 5 μl supernatant was diluted with 95 μl PBS in white flat-opaque-bottomed 96-well plates (ThermoFisher). Then, 100 μl of 10 μM coelenterazine (in PBS) was added and luciferase activity measured immediately using a Tecan infinite M200 luminescence reader, with integration time of 100 ms and OD2 compensation. The OD2 neutral density filter attenuates high level light by a factor of 100.
The LDH cytotoxicity assay was performed according to instructions in the Roche Cytotoxicity Detection Kit with minor modifications. Briefly, 10 μl supernatant was diluted with 90 μl PBS in transparent-flat-bottomed 96-well plates, 100 μl of kit reagent mixture was added to each well, the plates were incubated in the dark for 15-20 minutes at room temperatures, and absorbance was measured with a Tecan absorbance reader at 492 nm (reference at 600 nm).
Infection of epithelial cells with Candida spp. strains Overnight cultures of Candida spp. strains in YPD, 1% peptone were diluted, washed in PBS, and counted using Neubauer counting chambers. The medium of confluent epithelial cells was replaced with a suspension of […] Candida spp. (MOI 1) in the appropriate cell culture medium (without FBS). The cells were incubated at 37° C. and 5% CO2 for 24 hours.
Stock solutions of the antifungal drugs, fluconazole (10 mg/ml) and voriconazole (10 mg/ml) were prepared in DMSO and stored at −20° C. A two-fold dilution series was prepared in DMEM/F12 cell culture medium for fluconazole (8-0.25 μg/ml) and voriconazole ([…]). Diluted drugs were transferred to TR146-Nluc cells seeded 48 hours prior, and infected with C. albicans (SC5314), as described above. Supernatant was collected 24 hours after infection to measure damage by LDH and Nluc.

A further assay concerns the target T1, Nluc (Oplophorus gracilirostris, UniProt Q9GV45, A31E/A60N/A81I/F95D/I117V/K70R/L54V/L99Q/M102K/N193R/P142E/Q151K/Q38R/Q45L/V71I/Y165I).
T1 construct: expressed in transfected cells; host or cells: TR146 human oral epithelial cells, lentivirally transduced with pSEW-NanoLuc-IRES-PuroR (Nluc gene amplified from Addgene plasmid #67178), lysed in 1% Triton X-100 in PBS
Briefly: Effect of pyruvate on Nluc enzyme activity in TR146-Nluc cell lysate. Conditions: 16-0.5 mM dilution series (FIG. 4C). It is filed as biochemical. The procedure:
as §1
TR14-Nluc cells were detached with Accutase and resuspended in 5 ml PBS. Cells were counted and ≈1×10^4 cells/ml were resuspended in lysing buffer (1% Triton X-100 in PBS, pH 7.4).
To examine the effects of pyruvate on activity of LDH, a 2-fold dilution series for sodium pyruvate and lactate (16-0.5 mM) was prepared in lysis buffer, the lysate was incubated for 10 min at 37° C. and centrifuged at 10,000×g. The supernatant was collected to test LDH and luciferase enzyme activity.

T1 sequence (Q9GV45 other isoform, or with tags, fused parts or gaps with the stated changes): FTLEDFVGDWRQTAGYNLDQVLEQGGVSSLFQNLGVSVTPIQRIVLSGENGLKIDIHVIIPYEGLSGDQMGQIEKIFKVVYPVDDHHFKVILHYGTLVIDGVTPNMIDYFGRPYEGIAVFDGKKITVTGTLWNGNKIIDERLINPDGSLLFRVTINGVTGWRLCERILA

For the compound `OC(Cn1cncn1)(Cn1cncn1)c1ccc(F)cc1F` [fluconazole], in the assay on C. albicans (SC5314), the “protection of TR146-Nluc from C. albicans-induced cell damage, LDH assay” value is on record as “not with LDH” and the “protection of TR146-Nluc from C. albicans-induced cell damage, Nluc assay” value is “protective effect”.
As to `CC(=O)C(=O)[O-].[Na+]` [pyruvate, sodium pyruvate], the “effect on Nluc enzyme activity” value at Nluc is reported as “no discernible effect”.
Turning to `C[C@@H](c1ncncc1F)[C@](O)(Cn1cncn1)c1ccc(F)cc1F` [voriconazole], in the assay with C. albicans (SC5314), the “protection of TR146-Nluc from C. albicans-induced cell damage, LDH assay” value was “not with LDH” and the “protection of TR146-Nluc from C. albicans-induced cell damage, Nluc assay” value is given as “protective effect”.
